Like-named read-outs stand apart in the source and are kept apart here.

The target of the test is T1, human PAH with the R408W mutation (Homo sapiens, UniProt P00439, R408W).
T1 construct: expressed in transfected cells
T1 sequence (P00439 1-452 R408W): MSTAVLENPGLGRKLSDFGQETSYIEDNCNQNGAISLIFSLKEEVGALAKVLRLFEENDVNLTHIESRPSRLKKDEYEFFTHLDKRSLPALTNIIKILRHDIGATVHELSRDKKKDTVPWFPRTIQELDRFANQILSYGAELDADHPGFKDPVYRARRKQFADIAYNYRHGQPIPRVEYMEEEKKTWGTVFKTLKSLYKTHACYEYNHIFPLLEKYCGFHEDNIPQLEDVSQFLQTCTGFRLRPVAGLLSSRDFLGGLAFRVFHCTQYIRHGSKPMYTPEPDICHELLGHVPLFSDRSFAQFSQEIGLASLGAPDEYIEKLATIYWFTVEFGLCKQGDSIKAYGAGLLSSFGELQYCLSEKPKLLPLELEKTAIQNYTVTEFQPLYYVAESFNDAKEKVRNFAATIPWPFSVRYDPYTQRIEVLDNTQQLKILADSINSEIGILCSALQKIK
The test can be described thus: Cell Based Phenylalanine Flux Assay. Set-up: scale not given here. Particulars: A375 cells expressing human R408W PAH, 13C-Tyrosine by LC-MS, average where tested multiple times.

Where [1] appears, read: 24 hrs with compound, read-out: AC50.
Setting [2] is: 24 hrs compound incubation, read-out: AC50.

Regarding `O=C(Cc1cnco1)N1CCc2[nH]cnc2[C@H]1c1nc2ccccc2[nH]1` [(S)-1-(4-(1H-benzo[d]imidazol-2-yl)-6,7-dihydro-1H-imidazo[4,5-c]pyridin-5(4H)-yl)-2-(oxazol-5-yl)ethanone], under setting [1], the AC50 – broadly, the midpoint of the concentration-response curve, whichever way the signal moves – is over 5 µM.

As to `CC1CN(C(=O)c2cnc(N3CCOCC3)o2)C(c2nc3ccccc3s2)c2nc[nH]c21` (stereo not drawn), the AC50 under setting [1] is over 5 µM.

Take `O=C(CCC1CC1)N1CCc2[nH]cnc2[C@@H]1c1nc2ccc(F)cc2s1` [Example 1094, (R)-3-cyclopropyl-1-(4-(6-fluorobenzo[d]thiazol-2-yl)-6,7-dihydro-1H-imidazo[4,5-c]pyridin-5(4H)-yl)propan-1-one]: the AC50 under setting [2] is over 5 µM.

Turning to `CC(C)(O)Cn1ncc(C(=O)N2CCc3[nH]cnc3C2c2nc3c(F)cccc3s2)c1C(F)F` (stereo not drawn), the AC50 under setting [1] fell in the range of 1 to 5 µM.

Take `O=C(Cc1cnn2ccccc12)N1CCc2[nH]cnc2[C@H]1c1nc2ccccc2[nH]1` [(S)-1-(4-(1H-benzo[d]imidazol-2-yl)-6,7-dihydro-1H-imidazo[4,5-c]pyridin-5(4H)-yl)-2-(pyrazolo[1,5-a]pyridin-3-yl)ethanone]: the AC50 under setting [1] fell in the range of 1 to 5 µM.

`COc1ccn2ncc(C(=O)N3CCc4[nH]cnc4C3c3nc4ccc(F)cc4s3)c2c1` (stereo not drawn): under setting [1], the AC50 lay within 1 to 5 µM.

As to `Cc1ncoc1C(=O)N1C[C@@H](C)c2[nH]cnc2[C@H]1c1nc2ccccc2s1` [Example 1547, ((4S,7R)-4-(benzo[d]thiazol-2-yl)-7-methyl-6,7-dihydro-1H-imidazo[4,5-c]pyridin-5(4H)-yl)(4-methyloxazol-5-yl)methanone], the AC50 under setting [2] fell in the range of 1 to 5 µM.

Regarding `O=C(c1cnn2cc(F)ccc12)N1CCc2[nH]cnc2C1c1nc2ccc(F)cc2s1` (stereo not drawn), under setting [1], the AC50 was over 5 µM.

With `O=C(c1cnc(C(F)(F)F)o1)N1CCc2[nH]cnc2[C@H]1c1nc2ccccc2s1` [Example 1347], under setting [2], the AC50 is under 0.5 µM.

With `Cn1cc(-c2ncc(C(=O)N3CCc4[nH]cnc4[C@@H]3c3nc4ccccc4s3)s2)c(C2CC2)n1` [Example 1386, (R)-(4-(benzo[d]thiazol-2-yl)-6,7-dihydro-1H-imidazo[4,5-c]pyridin-5(4H)-yl)(2-(3-cyclopropyl-1-methyl-1H-pyrazol-4-yl)thiazol-5-yl)methanone], under setting [2], the AC50 was in the range of 1 to 5 µM.

In the case of `O=C(CCc1nc2ccccc2s1)N1CCc2[nH]cnc2[C@H]1c1nc2ccccc2[nH]1` [(S)-1-(4-(1H-benzo[d]imidazol-2-yl)-1,4,6,7-tetrahydro-5H-imidazo[4,5-c]pyridin-5-yl)-3-(benzo[d]thiazol-2-yl)propan-1-one], under setting [1], the AC50 is 1 to 5 µM.

Turning to `Cn1cc(C(=O)N2CCc3[nH]cnc3[C@H]2c2nc3ccccc3s2)c(Cl)n1` [Example 1870], the AC50 under setting [2] was under 0.5 µM.

Regarding `Cn1ncc(C(=O)N2CCc3[nH]cnc3C2c2nc3c(F)cccc3s2)n1` (stereo not drawn), the AC50 under setting [1] is over 5 µM.

As for `O=C(c1cnco1)N1CCc2[nH]cnc2[C@@H]1c1nc2cc(F)ccc2s1` (single isomer, unassigned), the AC50 under setting [1] was over 5 µM.

Consider `CCn1ncnc1C(=O)N1CCc2[nH]cnc2[C@H]1c1nc2c(F)cccc2s1` [Example 1959], for which, under setting [2], the AC50 was under 0.5 µM.

Consider `Cc1nn(C)cc1-c1ncc(C(=O)N2CCc3[nH]cnc3[C@H]2c2nc3ccccc3s2)s1` [Example 1379], for which the AC50 under setting [2] is under 0.5 µM.

As to `O=C(c1nccs1)N1CCc2[nH]cnc2C1c1nc2ccc(Br)cc2s1` (stereo not drawn), the AC50 under setting [1] was in the range of 1 to 5 µM.

`O=C(c1ocnc1CO)N1CC2(CC2)c2[nH]cnc2C1c1nc2ccccc2s1` (stereo not drawn): the AC50 under setting [1] is over 5 µM.

Consider `Cc1nc(-c2ccccn2)sc1C(=O)N1CCc2[nH]cnc2C1c1nc2ccccc2s1` (stereo not drawn), for which, under setting [1], the AC50 lay in the range of 1 to 5 µM.

With `O=C(C1CC1(F)F)N1CCc2[nH]cnc2[C@H]1c1nc2ccccc2s1` (single isomer, unassigned) [Example 1288], under setting [2], the AC50 lay within 0.5 to 1 µM.

For the compound `Cn1cc(-c2nc(C(F)(F)F)c(C(=O)N3CCc4[nH]cnc4[C@@H]3c3nc4ccccc4s3)o2)cn1` (single isomer, unassigned), the AC50 entry (24 hrs with compound) is given as “E, E”.

Regarding `Cn1cc(-c2ncc(C(=O)N3CCc4[nH]cnc4[C@H]3c3nc4ccccc4s3)o2)cn1` [Example 1344], the AC50 under setting [2] was 0.5 to 1 µM.

`CC(C)(CO)c1nc(C(F)F)c(C(=O)N2CCc3[nH]cnc3[C@H]2c2nc3c(F)cccc3s2)o1` [Example 2071]: the AC50 under setting [2] is under 0.5 µM.

Regarding `CN(C)Cc1nc(C(F)F)c(C(=O)N2CCc3[nH]cnc3[C@@H]2c2nc3ccccc3s2)o1` [Example 1782, (R)-(4-(benzo[d]thiazol-2-yl)-6,7-dihydro-1H-imidazo[4,5-c]pyridin-5(4H)-yl)(4-(difluoromethyl)-2-((dimethylamino)methyl)oxazol-5-yl)methanone], the AC50 under setting [2] was in the range of 0.5 to 1 µM.

For the compound `COc1cccc(/C=C/C(=O)N2CCc3[nH]cnc3[C@@H]2c2nc3ccccc3s2)c1` [Example 1012, (R,E)-1-(4-(benzo[d]thiazol-2-yl)-6,7-dihydro-1H-imidazo[4,5-c]pyridin-5(4H)-yl)-3-(3-methoxyphenyl)prop-2-en-1-one], the AC50 under setting [2] was over 5 µM.

Take `CN(C)CCn1nccc1C(=O)N1CCc2[nH]cnc2[C@H]1c1nc2c(F)cccc2s1` [Example 1761, (S)-(1-(2-(dimethylamino)ethyl)-1H-pyrazol-5-yl)(4-(4-fluorobenzo[d]thiazol-2-yl)-6,7-dihydro-1H-imidazo[4,5-c]pyridin-5(4H)-yl)methanone]: the AC50 under setting [2] lay in the range of 0.5 to 1 µM.

`O=C(c1oc(N2CCOCC2)nc1C(F)(F)F)N1CCc2[nH]cnc2[C@H]1c1nc2c(F)cccc2s1` [Example 1597, (S)-(4-(4-fluorobenzo[d]thiazol-2-yl)-6,7-dihydro-1H-imidazo[4,5-c]pyridin-5(4H)-yl)(2-morpholino-4-(trifluoromethyl)oxazol-5-yl)methanone]: under setting [2], the AC50 was under 0.5 µM.

Consider `Cc1ncoc1C(=O)N1C[C@H](C)c2[nH]cnc2[C@@H]1c1nc2ccccc2s1` [Example 1545, ((4R,7S)-4-(benzo[d]thiazol-2-yl)-7-methyl-1,4,6,7-tetrahydro-5H-imidazo[4,5-c]pyridin-5-yl)(4-methyloxazol-5-yl)methanone], for which the AC50 under setting [2] was over 5 µM.

On to `O=C(c1ncco1)N1CCc2[nH]cnc2[C@@H]1c1nc2cccc(F)c2s1` [Example 1280, (R)-(4-(7-fluorobenzo[d]thiazol-2-yl)-6,7-dihydro-1H-imidazo[4,5-c]pyridin-5(4H)-yl)(oxazol-2-yl)methanone], for which the AC50 under setting [2] was in the range of 1 to 5 µM.

As to `CC(C)(O)c1ccc2c(C(=O)N3CCc4[nH]cnc4[C@@H]3c3nc4c(F)cccc4s3)cnn2c1` [Example 1502, (R)-(4-(4-fluorobenzo[d]thiazol-2-yl)-6,7-dihydro-1H-imidazo[4,5-c]pyridin-5(4H)-yl)(6-(2-hydroxypropan-2-yl)pyrazolo[1,5-a]pyridin-3-yl)methanone], under setting [2], the AC50 lay in the range of 1 to 5 µM.

As to `CC(C)(O)c1nc(Cl)c(C(=O)N2CCc3[nH]cnc3[C@@H]2c2nc3c(F)cccc3s2)o1` [Example 1936, (R)-(4-chloro-2-(2-hydroxypropan-2-yl)oxazol-5-yl)(4-(4-fluorobenzo[d]thiazol-2-yl)-6,7-dihydro-1H-imidazo[4,5-c]pyridin-5(4H)-yl)methanone], under setting [2], the AC50 is 1 to 5 µM.

Turning to `CC(C)(O)c1noc(C(=O)N2CCc3[nH]cnc3C2c2nc3ccccc3s2)n1` (stereo not drawn), the AC50 under setting [1] lay in the range of 1 to 5 µM.

`N#Cc1ccn2ncc(C(=O)N3CCc4[nH]cnc4[C@@H]3c3nc4cc(F)ccc4s3)c2c1` [Example 1159, (R)-3-(4-(5-fluorobenzo[d]thiazol-2-yl)-4,5,6,7-tetrahydro-1H-imidazo[4,5-c]pyridine-5-carbonyl)pyrazolo[1,5-a]pyridine-5-carbonitrile]: the AC50 under setting [2] was over 5 µM.

For the compound `Cc1nnc(N2CCc3[nH]cnc3[C@H]2c2nc3ccccc3[nH]2)o1` (single isomer, unassigned), the AC50 under setting [1] fell in the range of 1 to 5 µM.

In the case of `Cc1cc(C(=O)N2CCc3[nH]cnc3C2c2nc3c(F)cccc3s2)n(-c2ccc(F)cc2)n1` (stereo not drawn), the AC50 under setting [1] was in the range of 1 to 5 µM.

Take `Cn1nc(C2CCC2)cc1C(=O)N1CCc2[nH]cnc2[C@@H]1c1nc2c(F)cccc2s1` [Example 1854, (R)-(3-cyclobutyl-1-methyl-1H-pyrazol-5-yl)(4-(4-fluorobenzo[d]thiazol-2-yl)-6,7-dihydro-1H-imidazo[4,5-c]pyridin-5(4H)-yl)methanone]: under setting [2], the AC50 lay within 1 to 5 µM.

As for `O=C(c1cnn2cc(Cl)ccc12)N1CCc2nc[nH]c2C1c1nc2cc(F)ccc2s1` (stereo not drawn), the AC50 under setting [1] lay within 1 to 5 µM.

Regarding `C[C@H]1CN(C(=O)c2nnc(-c3ccccn3)o2)[C@@H](c2nc3ccccc3s2)c2nc[nH]c21` [Example 1590, ((4R,7S)-4-(benzo[d]thiazol-2-yl)-7-methyl-6,7-dihydro-1H-imidazo[4,5-c]pyridin-5(4H)-yl)(5-(pyridin-2-yl)-1,3,4-oxadiazol-2-yl)methanone], the concentration at half-maximal activity (AC50) under setting [2] was in the range of 1 to 5 µM.

`O=C(Cc1nc(C(F)(F)F)cs1)N1CCc2[nH]cnc2C1c1nc2ccc(F)cc2[nH]1` (stereo not drawn): the AC50 under setting [1] lay in the range of 1 to 5 µM.

For `O=C(c1ccccc1)N1CCc2[nH]cnc2[C@H]1c1nc2ccccc2[nH]1` [Example 928, (S)-(4-(1H-benzo[d]imidazol-2-yl)-1,4,6,7-tetrahydro-5H-imidazo[4,5-c]pyridin-5-yl)(phenyl)methanone], under setting [2], the AC50 lay in the range of 0.5 to 1 µM.

For `O=C(c1cnco1)N1CCc2[nH]cnc2C1c1nc2ccc(F)cc2s1` (stereo not drawn), the AC50 under setting [1] lay within 1 to 5 µM.

With `O=C(c1oc(-c2ccccn2)nc1-c1ccccc1)N1CCc2[nH]cnc2C1c1nc2ccccc2s1` (stereo not drawn), the AC50 under setting [1] fell in the range of 1 to 5 µM.
